Eleven compounds from ChEMBL document CHEMBL1201862, “PubChem BioAssay data set” (2004) can be followed below.

SMILES strings stand for the structures.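 Growth conditions: 96-well plates. Treatment: test compound, 48 hours, 5 concentrations. Analysis: linear interpolation between bracketing concentrations; unreached endpoints set to highest concentration. At the GI50, growth is halved.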 Active and inactive are the calls of the source. Cut-off read from the data, not from the text of the source: active = GI50 up to about 1.1 µM and inactive = higher.

Common to all, as to experiment: DTP human tumour cell line panel, 48 h
The subject of assay [1] is CAKI-1.
The test system of assay [2] is SF-539.
Assay [3] concerns SN12C.
For assay [4], the system named is SK-MEL-2.
For assay [5], the system named is EKVX.
The test system of assay [6] is UO-31.
Assay [7] deals with UACC-62.
Assay [8] has as its system COLO 205.
Assay [9] relates to K562.
In assay [10] the test system is ACHN.
The subject of assay [11] is HCT-15.
For assay [12], the system named is RXF 393.
Assay [13] relates to SK-OV-3.
The subject of assay [14] is HT-29.
The test system of assay [15] is SR.
The subject of assay [16] is HCC 2998.
In assay [17] the test system is NCI-H460.
The subject of assay [18] is LOX IMVI.

`Cn1c(N)nc(=O)c2c1N(C1OC(CO)C(O)C1O)CN2Cc1ccccc1` (stereo unspecified): the GI50 in assay [1], in assay [2], in assay [3], in assay [4], in assay [5] and in assay [6] was > 100 µM (inactive) throughout. Further, the GI50 in assay [7] was > 100 µM (inactive); in [8], > 100 µM (inactive); in [9], > 100 µM (inactive); in assay [10], > 100 µM (inactive); in [11], greater than 100 µM; in [12], > 100 µM (inactive). The GI50 in assay [13], in [14], in assay [15], in assay [16] and in assay [17] was > 100 µM (inactive) in each case.

Turning to `O=C(O)CCC(N/C=C1/N=C(c2ccccc2)OC1=O)C(=O)O` (stereo unspecified), the GI50 in assay [1], in [2], in [3], in assay [4], in assay [5] and in assay [6] was > 100 µM (inactive) throughout. In addition, the GI50 in [7] was > 100 µM (inactive); in assay [8] it was > 100 µM (inactive); in assay [9], > 100 µM (inactive); in assay [10], > 100 µM (inactive); in [11], greater than 100 µM; in assay [12], > 100 µM (inactive). For the same compound, the GI50 in assay [13], in [14], in assay [15], in assay [16] and in assay [17] was > 100 µM (inactive) in each case.

Take `O=C1OC(c2ccccc2)=N/C1=C\c1cccc2ccccc12`: the GI50 in [1], in assay [2], in assay [3], in [18], in [4] and in [6] was > 100 µM (inactive) throughout. Besides, the GI50 in assay [7] was > 100 µM (inactive); in assay [8], > 100 µM (inactive); in [9], > 100 µM (inactive); in [10] it was > 100 µM (inactive); in [11], greater than 100 µM; in assay [12] it was > 100 µM (inactive). Further, the GI50 in [13], in assay [14], in assay [15], in assay [16] and in assay [17] was > 100 µM (inactive) throughout.

On to `N#CN=C(NCc1ccccc1)NCc1ccccc1`, for which the GI50 in assay [1], in [2], in [3], in assay [18], in assay [4] and in assay [5] was > 100 µM (inactive) each time. Besides, the GI50 in assay [6] was > 100 µM (inactive); in assay [7], > 100 µM (inactive); in [8] it was > 42.9 µM (inactive); in [9], > 75.3 µM (inactive); in [10] it was > 64.9 µM (inactive); in assay [11], greater than 40.3 µM. In addition, the GI50 in assay [12] was > 48.6 µM (inactive); in [13], > 100 µM (inactive); in [14] it was > 100 µM (inactive); in [15] it was 27.9 µM (inactive); in assay [16], > 100 µM (inactive); in assay [17] it was > 64.7 µM (inactive).

As for `CC(=O)c1sc(-c2nc(C)c(C(=O)/C=C\c3ccc(/C=C\C(=O)c4sc(-c5nc(C)c(C(C)=O)s5)nc4C)cc3)s2)nc1C`, the GI50 in [1], in assay [2], in assay [3], in assay [18], in assay [4] and in [5] was > 100 µM (inactive) in each case. Further, the GI50 in [6] is > 100 µM (inactive); in assay [7], 85.9 µM (inactive); in assay [8], > 100 µM (inactive); in [9], > 100 µM (inactive); in [10], > 100 µM (inactive); in assay [11], greater than 100 µM. The GI50 in assay [12], in [13], in [14], in assay [15], in assay [16] and in [17] was > 100 µM (inactive) throughout.

With `O=C1c2ccccc2C(=O)N1/N=C\c1ccc(Br)cc1`, the GI50 in [1], in assay [2], in assay [3], in assay [18], in assay [4] and in assay [5] was > 10 µM (inactive) each time. Further, the GI50 in assay [6] is > 10 µM (inactive); in assay [7], > 10 µM (inactive); in assay [8], > 100 µM (inactive); in assay [9], > 10 µM (inactive); in assay [10], > 10 µM (inactive); in [11], greater than 10 µM. The GI50 was > 10 µM (inactive) in assay [12]; > 100 µM (inactive) in assay [13]; > 10 µM (inactive) in assay [14]; > 10 µM (inactive) in assay [15]; > 10 µM (inactive) in assay [16]; > 10 µM (inactive) in assay [17].

On to `O=C(NCC(O)CNC(=O)C(F)(F)F)C(F)(F)F`, for which the GI50 in assay [1], in assay [2], in [3], in assay [18], in assay [5] and in assay [6] was > 100 µM (inactive) throughout. For the same compound, the GI50 in [7] was > 100 µM (inactive); in [8], > 100 µM (inactive); in [9], > 100 µM (inactive); in [11], greater than 100 µM; in assay [12], > 100 µM (inactive); in assay [13], > 100 µM (inactive). The GI50 in [14], in assay [15], in assay [16] and in assay [17] was > 100 µM (inactive) throughout.

Consider `CC(C)N(C(=O)C12C3C4C5(C#N)C3C1(I)C5C42I)C(C)C` (stereo unspecified), for which the GI50 in assay [1] is > 100 µM (inactive); in [2], > 60.8 µM (inactive); in assay [3], > 68.2 µM (inactive); in assay [18], > 40.3 µM (inactive); in assay [4], > 100 µM (inactive); in assay [5], > 100 µM (inactive). The GI50 was > 100 µM (inactive) in [6]; > 100 µM (inactive) in [7]; > 42 µM (inactive) in assay [8]; > 52.8 µM (inactive) in [9]; > 100 µM (inactive) in [10]; greater than 41.9 µM in assay [11]. In addition, the GI50 is > 100 µM (inactive) in assay [12]; > 100 µM (inactive) in assay [13]; > 73.8 µM (inactive) in assay [14]; 37.8 µM (inactive) in [15]; > 100 µM (inactive) in assay [16]; > 78 µM (inactive) in assay [17].

Take `CCOC(=O)C12C(C(=O)OC)=C(C)N(NC(=O)Nc3ccccc3)C1(N)N(NC(=O)Nc1ccccc1)C(C)=C2C(=O)OC` (stereo unspecified): the GI50 in assay [1] was 34.9 µM (inactive); in [2], 18.9 µM (inactive); in assay [3], > 61.5 µM (inactive); in [18] it was 17 µM (inactive); in assay [4], 19.9 µM (inactive); in [5] it was 43.5 µM (inactive). Further, the GI50 is 40 µM (inactive) in assay [6]; 18 µM (inactive) in [7]; > 41.1 µM (inactive) in assay [8]; 29.9 µM (inactive) in assay [9]; 34.1 µM (inactive) in assay [10]; 35.2 µM in assay [11]. Further, the GI50 in assay [12] was 29.2 µM (inactive); in assay [13], > 59.8 µM (inactive); in assay [14], 24.5 µM (inactive); in assay [15], 22 µM (inactive); in [16], 25.2 µM (inactive); in assay [17], 40.3 µM (inactive).

Regarding `CCCCCCCCCCC(=O)CC(=O)c1c(O)cccc1O`, the GI50 in assay [1] is 41 µM (inactive); in assay [2], 36.4 µM (inactive); in assay [3] it was 29.3 µM (inactive); in assay [18], 18.7 µM (inactive); in assay [5] it was 38.5 µM (inactive); in assay [6], 29 µM (inactive). The GI50 in assay [7] was 41.9 µM (inactive); in [8] it was 31 µM (inactive); in assay [9], 24.9 µM (inactive); in assay [10], 30 µM (inactive); in [11] it was 47.4 µM; in assay [12] it was 26.3 µM (inactive). In addition, the GI50 is 38.1 µM (inactive) in [13]; 30.7 µM (inactive) in assay [14]; 33.6 µM (inactive) in assay [15]; 27.8 µM (inactive) in assay [16]; 34.7 µM (inactive) in [17].

For `CN(C)CC(C)(C)C(=O)/C=C/c1ccc(/C=C/C(=O)C(C)(C)CN(C)C)cc1`, the GI50 is 1.42 µM (inactive) in assay [1]; 2.13 µM (inactive) in assay [2]; 1.42 µM (inactive) in assay [3]; 0.456 µM (active) in [18]; 1.45 µM (inactive) in assay [5]; 1.99 µM (inactive) in assay [6]. For the same compound, the GI50 was 1.74 µM (inactive) in [7]; 1.03 µM (active) in [8]; 0.202 µM (active) in assay [9]; 1.47 µM (inactive) in [10]; 0.605 µM in assay [11]; 1.17 µM (inactive) in assay [12]. In addition, the GI50 in [13] is 2.81 µM (inactive); in assay [14], 0.51 µM (active); in assay [15] it was 2.28 µM (inactive); in assay [16] it was 1.66 µM (inactive); in assay [17], 3.78 µM (inactive).

One may read the GI50 as the concentration that inhibits growth by half.
